Laboratory results from BindingDB's records for doi:10.1016/j.bmcl.2021.128008 (National Institute of Diabetes and Digestive and Kidney …, 2021).

Target: D(1B) dopamine receptor (Homo sapiens, UniProt P21918)
Assay: Inhibition of dopamine D5 receptor (unknown origin)

Sequence of D(1B) dopamine receptor (P21918 whole entry): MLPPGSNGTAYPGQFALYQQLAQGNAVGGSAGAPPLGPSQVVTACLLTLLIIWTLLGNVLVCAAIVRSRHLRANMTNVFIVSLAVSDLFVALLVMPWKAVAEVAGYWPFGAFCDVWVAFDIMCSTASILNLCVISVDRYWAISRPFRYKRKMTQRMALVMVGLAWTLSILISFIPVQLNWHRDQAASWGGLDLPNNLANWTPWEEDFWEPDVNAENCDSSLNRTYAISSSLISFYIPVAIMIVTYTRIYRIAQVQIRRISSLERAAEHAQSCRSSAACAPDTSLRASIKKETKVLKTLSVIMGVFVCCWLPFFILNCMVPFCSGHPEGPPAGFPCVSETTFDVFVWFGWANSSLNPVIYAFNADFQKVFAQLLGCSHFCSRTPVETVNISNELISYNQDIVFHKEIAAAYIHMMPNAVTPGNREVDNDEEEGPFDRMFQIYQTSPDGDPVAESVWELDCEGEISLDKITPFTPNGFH

A Ki of 2100 nM was found for `CC(C)(C)C#Cc1ccc2c(c1)C=C([N+](=O)[O-])C(C(F)(F)F)O2` (stereo unspecified) in this work.
